The source of these data is patent US11964960B2 (Cornell University, priority 2018, dated 2024).

SMILES strings stand for the structures.

For the first test, the target named is T1, S1P2 (Homo sapiens, UniProt O95136).
T1 construct: Flag; expressed in transfected cells; host or cells: Chinese hamster ovary (CHO) cells, doxycycline-inducible (CHO-S1P2-FL / CHO-S1PR2 FL)
T1 sequence (O95136 whole entry, species assumed): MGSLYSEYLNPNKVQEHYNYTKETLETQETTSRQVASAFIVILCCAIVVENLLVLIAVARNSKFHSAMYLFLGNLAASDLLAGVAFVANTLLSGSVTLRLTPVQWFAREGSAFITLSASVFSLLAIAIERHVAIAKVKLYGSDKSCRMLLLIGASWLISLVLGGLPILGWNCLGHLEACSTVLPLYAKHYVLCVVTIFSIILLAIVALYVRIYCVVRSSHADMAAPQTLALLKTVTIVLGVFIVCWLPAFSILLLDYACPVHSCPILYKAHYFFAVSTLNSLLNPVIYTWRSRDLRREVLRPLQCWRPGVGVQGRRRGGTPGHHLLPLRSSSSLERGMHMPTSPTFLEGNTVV
Briefly: GLISA RhoA activation - antagonist assay. The settings on record: 1 μM compound, CHO-S1P2-FL cells. The class given is cell-based. As for the experimental part: GLISA RhoA Activation—Antagonist Assay
GLISA assays were performed using RhoA (BK124) activation kit purchased from Cytoskeleton Inc., Denver, CO Doxycycline-inducible Flag-tag S1P2 expressing Chinese hamster ovary (CHO) cells (CHO-S1P2-FL) were seeded in a 6-well plate, 1.5×10^5 cells per well. Cells were stimulated with […] of Doxycycline to induce S1P2 expression in serum free IMDM media with 0.1% BSA/PBS. Following day, cells were stimulated with the compounds described herein (1 nM-10 μM) or 1 μM JTE-013 for 1 hour at 37° C. Following compound incubation, cells were washed with PBS×3 and induced with 100 nM […] for 5 min. […] Protein concentration was examined using GLISA—Precision Red Advanced Protein assay reagent as described in assay manual. Lysates were immobilized on GTP-bound capture plate and GLISA assay was performed based on manufacture recommendations as reported previously.
Take `Cc1cc(C(=O)Cn2cc(I)ccc2=O)c(C)n1Cc1ccccc1` [Compound 2, 1-(2-(1-benzyl-2,5-dimethyl-1H-pyrrol-3-yl)-2-oxoethyl)-5-iodopyridin-2(1H)-one]: the inhibition (as a rule, the share of the control response that was lost under treatment) at 1 µM turned out to be 57%.

In the case of `Cc1cc(C(=O)C(C)n2cc(Br)ccc2=O)c(C)n1Cc1ccccc1` (stereo not drawn) [Compound 4, 1-(1-(1-benzyl-2,5-dimethyl-1H-pyrrol-3-yl)-1-oxopropan-2-yl)-5-bromopyridin-2(1H)-one], at 1 µM the inhibition was 86%.

Consider `Cc1nc(Cn2c(C)cc(C(=O)C(C)n3cc(Br)ccc3=O)c2C)no1` (stereo not drawn) [Compound 5, 5-bromo-1-(1-(2,5-dimethyl-1-((5-methyl-1,2,4-oxadiazol-3-yl)methyl)-1H-pyrrol-3-yl)-1-oxopropan-2-yl)pyridin-2(1H)-one], for which 1 µM produced 48% inhibition. Still for that read-out and setting: the same measure for `Cc1noc(Cn2c(C)cc(C(=O)C(C)n3cc(Br)ccc3=O)c2C)n1` (stereo not drawn) [Compound 6, 5-bromo-1-(1-(2,5-dimethyl-1-((3-methyl-1,2,4-oxadiazol-5-yl)methyl)-1H-pyrrol-3-yl)-1-oxopropan-2-yl)pyridin-2(1H)-one]: 29%; for `Cc1cc(C(=O)C(C)n2cc(Br)ccc2=O)c(C)n1Cc1ncccn1` (stereo not drawn) [Compound 7, 5-bromo-1-(1-(2,5-dimethyl-1-(pyrimidin-2-ylmethyl)-1H-pyrrol-3-yl)-1-oxopropan-2-yl)pyridin-2(1H)-one]: 58%; for `Cc1cc(C(=O)C(C)n2cc(Br)ccc2=O)c(C)n1Cc1cnn(C)c1` (stereo not drawn) [Compound 8, 5-bromo-1-(1-(2,5-dimethyl-1-((1-methyl-1H-pyrazol-4-yl)methyl)-1H-pyrrol-3-yl)-1-oxopropan-2-yl)pyridin-2(1H)-one]: 20%. Take `Cc1cc(Cn2c(C)cc(C(=O)C(C)n3cc(Br)ccc3=O)c2C)no1` (stereo not drawn) [Compound 9, 5-bromo-1-(1-(2,5-dimethyl-1-((5-methylisoxazol-3-yl)methyl)-1H-pyrrol-3-yl)-1-oxopropan-2-yl)pyridin-2(1H)-one]: at 1 µM the inhibition was 32%.

Molecule `Cc1cc(C(=O)C(C)n2cc(Br)ccc2=O)c(C)n1CC1CCOCC1` (stereo not drawn) [Compound 10, 5-bromo-1-(1-(2,5-dimethyl-1-((tetrahydro-2H-pyran-4-yl)methyl)-1H-pyrrol-3-yl)-1-oxopropan-2-yl)pyridin-2(1H)-one] displayed an inhibition at 1 µM of 39%. Same read-out and setting: the same measure for `Cc1cc(C(=O)C(C)n2cc(Br)ccc2=O)c(C)n1CC1CCCOC1` (stereo not drawn) [Compound 11, 5-bromo-1-(1-(2,5-dimethyl-1-((tetrahydro-2H-pyran-3-yl)methyl)-1H-pyrrol-3-yl)-1-oxopropan-2-yl)pyridin-2(1H)-one]: 30%; for `Cc1cc(C(=O)C(C)n2cc(Br)ccc2=O)c(C)n1Cc1ccn(C)n1` (stereo not drawn) [Compound 12, 5-bromo-1-(1-(2,5-dimethyl-1-((1-methyl-1H-pyrazol-3-yl)methyl)-1H-pyrrol-3-yl)-1-oxopropan-2-yl)pyridin-2(1H)-one]: 41%. Same read-out and setting: for `Cc1cc(C(=O)C(C)n2cc(Br)ccc2=O)c(C)n1Cc1ccc(S(C)(=O)=O)cc1` (stereo not drawn) [Compound 13, 5-bromo-1-(1-(2,5-dimethyl-1-(4-(methylsulfonyl)benzyl)-1H-pyrrol-3-yl)-1-oxopropan-2-yl)pyridin-2(1H)-one] the value was 29%; for `Cc1cc(C(=O)C(C)n2cc(Br)ccc2=O)c(C)n1Cc1cccc(S(C)(=O)=O)c1` (stereo not drawn) [Compound 14, 5-bromo-1-(1-(2,5-dimethyl-1-(3-(methylsulfonyl)benzyl)-1H-1-pyrrol-3-yl)-1-oxopropan-2-yl)pyridin-2(1H)-one], 35%; for `Cc1cc(C(=O)C(C)n2cc(Br)ccc2=O)c(C)n1Cc1cccc(C#N)c1` (stereo not drawn) [Compound 15, 3-((3-(2-(5-bromo-2-oxopyridin-1(2H)-yl)propanoyl)-2,5-dimethyl-1H-pyrrol-1-yl)methyl)benzonitrile], 70%.

Staying with this test, now noted: CHO-S1P2-FL cells, 1 hour compound incubation, then for 5 min.
For the molecule `Cc1cc(C(=O)Cn2cc(I)ccc2=O)c(C)n1Cc1ccccc1` [Compound 2, 1-(2-(1-benzyl-2,5-dimethyl-1H-pyrrol-3-yl)-2-oxoethyl)-5-iodopyridin-2(1H)-one], the IC50 (as a rule, the midpoint of a concentration-inhibition curve) amounted to 1470 nM. On the same count and under the same terms, for `Cc1cc(C(=O)C(C)n2cc(Br)ccc2=O)c(C)n1Cc1ccccc1` (stereo not drawn) [Compound 4, 1-(1-(1-benzyl-2,5-dimethyl-1H-pyrrol-3-yl)-1-oxopropan-2-yl)-5-bromopyridin-2(1H)-one] the value was 26 nM.
